Measurements published in ChEMBL document CHEMBL1201862, “PubChem BioAssay data set” (2004).
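Each compound was tested at five concentrations against cells in 96-well plates for 48 hours. Abbreviation: GI50, concentration required for 50% inhibition of growth.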 Active and inactive are the calls of the source. Rule as the data show it: active = GI50 up to about 1.1 µM and inactive = higher.

What was measured:
Assay in all cases: growth of human tumour cells (NCI), 48 h
SNB-75 = test system: SNB-75
LOX IMVI = test system: LOX IMVI
CAKI-1 = test system: CAKI-1
UACC-62 = test system: UACC-62
CCRF-CEM = test system: CCRF-CEM
OVCAR-5 = test system: OVCAR-5
NCI-H23 = test system: NCI-H23
NCI-H522 = test system: NCI-H522
786-0 = test system: 786-0
OVCAR-3 = test system: OVCAR-3
SK-MEL-28 = test system: SK-MEL-28
UO-31 = test system: UO-31
M14 = test system: M14
MOLT-4 = test system: MOLT-4
HOP-62 = test system: HOP-62
IGROV-1 = test system: IGROV-1
SF-295 = test system: SF-295
COLO 205 = test system: COLO 205
SW-620 = test system: SW-620

Measured: GI50

O=C(Nc1ccc(Cl)cc1)c1cc(S(=O)(=O)Nc2n[nH]c(=O)[nH]2)c(SSc2cc(Cl)c(C(=O)Nc3ccc(Cl)cc3)cc2S(=O)(=O)Nc2n[nH]c(=O)[nH]2)cc1Cl
inactive: SNB-75 88.1 µM | LOX IMVI > 100 µM | CAKI-1 > 100 µM | UACC-62 > 100 µM | CCRF-CEM > 100 µM | OVCAR-5 > 100 µM | NCI-H23 > 100 µM | NCI-H522 > 100 µM | 786-0 > 100 µM | OVCAR-3 > 100 µM | SK-MEL-28 > 100 µM | UO-31 > 100 µM | M14 > 100 µM | MOLT-4 > 100 µM | HOP-62 > 100 µM | IGROV-1 > 100 µM | SF-295 > 100 µM | COLO 205 > 100 µM | SW-620 > 100 µM

CC(C)c1cccc(C(C)C)c1NC(=O)CCC(=O)NN
inactive: SNB-75 > 100 µM | CAKI-1 > 100 µM | UACC-62 > 100 µM | CCRF-CEM > 100 µM | OVCAR-5 > 100 µM | NCI-H23 > 100 µM | 786-0 > 100 µM | OVCAR-3 > 100 µM | SK-MEL-28 > 100 µM | UO-31 > 100 µM | M14 > 100 µM | MOLT-4 > 100 µM | HOP-62 > 100 µM | IGROV-1 > 100 µM | SF-295 > 100 µM | COLO 205 19.6 µM | SW-620 21.9 µM

O=C(CC/C(CC(=O)c1ccc(Cl)cc1)=N\O)Nc1cccc(Cl)c1
inactive: SNB-75 80.7 µM | LOX IMVI > 100 µM | CAKI-1 > 100 µM | UACC-62 > 100 µM | CCRF-CEM > 100 µM | OVCAR-5 > 100 µM | NCI-H23 > 100 µM | 786-0 > 100 µM | OVCAR-3 > 100 µM | SK-MEL-28 > 100 µM | UO-31 > 100 µM | M14 > 100 µM | MOLT-4 > 100 µM | HOP-62 > 100 µM | IGROV-1 > 100 µM | SF-295 > 100 µM | COLO 205 > 100 µM | SW-620 > 100 µM

O=C1/C(=C/c2ccco2)NC(=S)N1CN1CCCCC1
inactive: SNB-75 58.5 µM | LOX IMVI 33.7 µM | UACC-62 57.9 µM | CCRF-CEM 21.8 µM | OVCAR-5 > 100 µM | NCI-H23 > 100 µM | NCI-H522 > 100 µM | 786-0 70.1 µM | OVCAR-3 > 100 µM | SK-MEL-28 > 100 µM | UO-31 26.9 µM | M14 99.3 µM | MOLT-4 > 100 µM | HOP-62 > 100 µM | IGROV-1 81.3 µM | SF-295 > 100 µM | COLO 205 51.4 µM | SW-620 38.5 µM

O=CNCCCN1CCN(CCCNC=O)CC1
inactive: LOX IMVI > 100 µM | CAKI-1 > 100 µM | UACC-62 > 100 µM | CCRF-CEM > 100 µM | OVCAR-5 > 100 µM | NCI-H23 > 100 µM | NCI-H522 1.6 µM | 786-0 > 100 µM | OVCAR-3 > 100 µM | SK-MEL-28 > 100 µM | UO-31 > 100 µM | M14 > 100 µM | MOLT-4 > 100 µM | HOP-62 > 100 µM | IGROV-1 > 100 µM | SF-295 > 100 µM | COLO 205 > 100 µM | SW-620 > 100 µM

O=C1Cc2ccccc2N1/N=C\c1ccc([N+](=O)[O-])cc1
inactive: SNB-75 54.8 µM | LOX IMVI > 100 µM | CAKI-1 > 100 µM | UACC-62 > 100 µM | CCRF-CEM > 100 µM | OVCAR-5 > 100 µM | NCI-H23 > 100 µM | 786-0 > 100 µM | OVCAR-3 > 100 µM | SK-MEL-28 > 100 µM | UO-31 > 100 µM | M14 > 100 µM | MOLT-4 > 100 µM | HOP-62 > 100 µM | IGROV-1 > 100 µM | SF-295 > 100 µM | COLO 205 > 100 µM | SW-620 > 100 µM

CN(/N=C/c1ccccc1C(=O)O)C1=NCCCCN1
inactive: SNB-75 > 100 µM | LOX IMVI > 100 µM | CAKI-1 > 100 µM | UACC-62 > 100 µM | CCRF-CEM > 100 µM | OVCAR-5 > 100 µM | NCI-H23 > 100 µM | NCI-H522 19.1 µM | 786-0 > 100 µM | OVCAR-3 > 100 µM | UO-31 > 100 µM | M14 > 100 µM | MOLT-4 > 100 µM | HOP-62 > 100 µM | IGROV-1 > 100 µM | SF-295 > 100 µM | COLO 205 > 100 µM | SW-620 > 100 µM

CC1(C)Cc2c(oc3ncnc(N)c23)CS1
inactive: SNB-75 > 100 µM | LOX IMVI > 100 µM | CAKI-1 > 100 µM | UACC-62 > 100 µM | CCRF-CEM > 100 µM | OVCAR-5 > 100 µM | NCI-H23 > 100 µM | NCI-H522 > 100 µM | 786-0 > 100 µM | OVCAR-3 > 100 µM | UO-31 49.2 µM | M14 > 100 µM | MOLT-4 > 100 µM | HOP-62 > 100 µM | IGROV-1 > 100 µM | SF-295 > 100 µM | COLO 205 > 100 µM | SW-620 > 100 µM

COC(=O)C(=O)C(C(=O)C(=O)Nc1cccc(OC)c1)c1nc2ccc(Cl)cc2nc1O (configuration not stated)
inactive: SNB-75 > 100 µM | LOX IMVI > 100 µM | CAKI-1 > 100 µM | UACC-62 89.3 µM | CCRF-CEM 12.9 µM | OVCAR-5 > 100 µM | NCI-H23 > 100 µM | NCI-H522 > 100 µM | 786-0 > 100 µM | OVCAR-3 > 100 µM | SK-MEL-28 > 100 µM | UO-31 > 100 µM | M14 > 100 µM | MOLT-4 > 100 µM | IGROV-1 > 100 µM | SF-295 > 100 µM | COLO 205 > 100 µM | SW-620 > 100 µM

O=C(CCC(=O)Nc1cccc(Cl)c1)CC(=O)c1ccc(F)cc1
inactive: SNB-75 > 100 µM | LOX IMVI > 100 µM | CAKI-1 > 100 µM | UACC-62 > 100 µM | OVCAR-5 > 100 µM | NCI-H23 > 100 µM | NCI-H522 > 100 µM | 786-0 > 100 µM | OVCAR-3 > 100 µM | SK-MEL-28 > 100 µM | UO-31 > 100 µM | M14 > 100 µM | MOLT-4 > 100 µM | HOP-62 > 100 µM | SF-295 23.2 µM | COLO 205 > 100 µM | SW-620 > 100 µM

CCOC(=O)[C@]12C3C=CC(C3)C1C(=O)C1OC12 (some centres not stated)
inactive: SNB-75 81.5 µM | LOX IMVI > 100 µM | CAKI-1 > 100 µM | UACC-62 > 100 µM | CCRF-CEM > 100 µM | OVCAR-5 > 100 µM | NCI-H23 > 100 µM | NCI-H522 > 100 µM | 786-0 > 100 µM | OVCAR-3 > 100 µM | SK-MEL-28 > 100 µM | UO-31 > 100 µM | MOLT-4 > 100 µM | HOP-62 > 100 µM | IGROV-1 > 100 µM | SF-295 > 100 µM | COLO 205 > 100 µM | SW-620 > 100 µM
